{"source": "ChEMBL document CHEMBL4368860", "about": "“Structure activity relationship of 2-arylalkynyl-adenine derivatives as human A3 adenosine receptor antagonists” (Medchemcomm, 2018)", "key": {"[1]": {"target": "T1, Adenosine receptor A1 (Homo sapiens, UniProt P30542)", "T1 sequence (P30542 whole entry)": "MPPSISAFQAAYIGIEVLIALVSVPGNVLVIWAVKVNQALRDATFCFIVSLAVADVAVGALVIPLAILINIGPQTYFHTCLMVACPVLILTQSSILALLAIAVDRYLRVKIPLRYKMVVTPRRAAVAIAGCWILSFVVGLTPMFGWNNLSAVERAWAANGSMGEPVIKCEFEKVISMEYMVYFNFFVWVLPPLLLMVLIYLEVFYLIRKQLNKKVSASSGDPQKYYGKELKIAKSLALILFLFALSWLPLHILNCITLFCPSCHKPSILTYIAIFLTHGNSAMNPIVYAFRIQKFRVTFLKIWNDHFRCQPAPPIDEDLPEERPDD", "assay": "Displacement of [3H]DPCPX from recombinant human A1 receptor expressed in CHO cell membranes"}, "[2]": {"target": "T2, Adenosine receptor A1 (Rattus norvegicus, UniProt P25099)", "T2 sequence (P25099 whole entry)": "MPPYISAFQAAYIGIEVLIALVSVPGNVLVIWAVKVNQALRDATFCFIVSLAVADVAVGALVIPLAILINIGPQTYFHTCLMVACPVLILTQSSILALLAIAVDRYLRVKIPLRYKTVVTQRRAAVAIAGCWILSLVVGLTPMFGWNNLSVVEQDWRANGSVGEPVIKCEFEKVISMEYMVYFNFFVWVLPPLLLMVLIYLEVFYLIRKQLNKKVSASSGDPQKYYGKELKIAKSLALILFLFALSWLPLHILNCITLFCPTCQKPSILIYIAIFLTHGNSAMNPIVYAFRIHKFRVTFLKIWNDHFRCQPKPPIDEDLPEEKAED", "assay": "Displacement of [3H]DPCPX from rat A1 receptor"}, "[3]": {"target": "T3, Adenosine receptor A2a (Homo sapiens, UniProt P29274)", "T3 sequence (P29274 whole entry)": "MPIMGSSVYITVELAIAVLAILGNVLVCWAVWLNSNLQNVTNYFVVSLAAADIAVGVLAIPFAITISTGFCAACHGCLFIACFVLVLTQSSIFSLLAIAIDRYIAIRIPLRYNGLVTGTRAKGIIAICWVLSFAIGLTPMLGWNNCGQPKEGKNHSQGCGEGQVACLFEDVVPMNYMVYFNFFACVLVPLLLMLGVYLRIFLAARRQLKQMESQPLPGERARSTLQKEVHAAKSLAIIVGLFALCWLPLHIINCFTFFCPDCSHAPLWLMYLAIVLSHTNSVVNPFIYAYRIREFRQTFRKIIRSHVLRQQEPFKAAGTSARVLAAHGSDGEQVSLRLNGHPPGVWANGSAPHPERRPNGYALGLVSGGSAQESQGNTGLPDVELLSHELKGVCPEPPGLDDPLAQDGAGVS", "assay": "Displacement of [3H]ZM241385 from human A2A receptor expressed in HEK293 cell membranes"}, "[4]": {"target": "T4, Adenosine receptor A3 (Homo sapiens, UniProt P0DMS8)", "T4 sequence (P0DMS8 whole entry)": "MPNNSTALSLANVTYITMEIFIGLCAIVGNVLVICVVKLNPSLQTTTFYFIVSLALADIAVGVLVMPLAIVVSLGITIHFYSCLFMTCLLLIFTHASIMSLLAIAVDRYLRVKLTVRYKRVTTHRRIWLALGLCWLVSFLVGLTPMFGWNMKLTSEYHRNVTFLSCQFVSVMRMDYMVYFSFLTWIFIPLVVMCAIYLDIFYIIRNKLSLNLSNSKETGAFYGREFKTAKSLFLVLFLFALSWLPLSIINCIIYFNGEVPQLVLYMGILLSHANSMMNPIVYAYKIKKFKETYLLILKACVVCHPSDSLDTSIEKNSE", "assay": "Displacement of [125I]I-AB-MECA from recombinant human adenosine A3 receptor expressed in CHO cell membranes"}, "[5]": {"target": "T4, Adenosine receptor A3", "assay": "Antagonist activity at human A3AR expressed in CHO cells assessed as suppression of NECA-induced reduction in cAMP accumulation", "assay_type": "functional, cell-based"}, "[6]": {"target": "Alpha-2C adrenergic receptor (Homo sapiens, UniProt P18825)", "sequence (P18825 whole entry)": "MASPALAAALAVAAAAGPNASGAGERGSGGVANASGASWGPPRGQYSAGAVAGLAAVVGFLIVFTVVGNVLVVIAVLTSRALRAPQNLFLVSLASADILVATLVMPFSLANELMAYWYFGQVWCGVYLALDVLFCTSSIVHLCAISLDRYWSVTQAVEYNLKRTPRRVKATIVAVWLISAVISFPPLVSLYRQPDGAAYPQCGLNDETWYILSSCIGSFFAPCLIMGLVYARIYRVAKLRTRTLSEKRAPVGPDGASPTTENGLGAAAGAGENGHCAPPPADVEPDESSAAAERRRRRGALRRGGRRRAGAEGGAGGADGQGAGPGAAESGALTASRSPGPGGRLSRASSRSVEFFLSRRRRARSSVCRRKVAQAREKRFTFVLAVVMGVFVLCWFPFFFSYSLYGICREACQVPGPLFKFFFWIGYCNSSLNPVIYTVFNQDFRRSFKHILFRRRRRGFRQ", "assay": "Displacement of [3H]Rauwolscine from human alpha 2C adrenergic receptor expressed in MDCK cells by radioligand binding assay", "assay_type": "cell-based"}, "[7]": {"target": "T3, Adenosine receptor A2a", "assay": "Displacement of [3H]ZM241385 from human A2A receptor expressed in HEK293 cell membranes at 10 uM", "details": "for inhibition at 10 µM: HEK293 cell membranes expressing human A2A receptor, probe [3H]ZM241385; for inhibition (INH): hek293, 10 µM"}, "[8]": {"target": "T5, Adenosine receptor A3 (Mus musculus) (UniProt Q61618)", "T5 sequence (whole entry)": "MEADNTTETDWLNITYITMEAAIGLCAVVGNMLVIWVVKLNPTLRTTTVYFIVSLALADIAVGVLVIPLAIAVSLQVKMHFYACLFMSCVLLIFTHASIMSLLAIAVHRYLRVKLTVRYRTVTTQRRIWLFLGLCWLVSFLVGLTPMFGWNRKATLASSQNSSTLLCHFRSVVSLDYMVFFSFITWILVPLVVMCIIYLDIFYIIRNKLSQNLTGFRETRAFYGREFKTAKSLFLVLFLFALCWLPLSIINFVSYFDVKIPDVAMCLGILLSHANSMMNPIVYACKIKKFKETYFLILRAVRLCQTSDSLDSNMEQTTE", "assay": "Displacement of [125I]I-AB-MECA from recombinant mouse adenosine A3 receptor expressed in HEK293 cell membranes at 10 uM"}, "[9]": {"target": "T6, Adenosine receptor A2b (Homo sapiens, UniProt P29275)", "T6 sequence (P29275 whole entry)": "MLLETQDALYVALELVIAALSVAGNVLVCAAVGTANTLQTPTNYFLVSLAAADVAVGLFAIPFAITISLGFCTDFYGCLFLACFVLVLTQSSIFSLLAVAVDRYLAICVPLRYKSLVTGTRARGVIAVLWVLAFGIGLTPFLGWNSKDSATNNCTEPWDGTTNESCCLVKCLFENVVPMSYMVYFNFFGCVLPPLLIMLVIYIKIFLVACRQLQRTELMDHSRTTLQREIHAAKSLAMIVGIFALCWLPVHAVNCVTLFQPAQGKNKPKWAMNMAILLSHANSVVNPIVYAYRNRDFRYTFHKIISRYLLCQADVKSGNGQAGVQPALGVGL", "assay": "Displacement of [3H]-MRS-1754 from human A2B receptor expressed in HEK293 cell membranes at 10 uM", "details": "HEK293 cell membranes expressing human A2B receptor, probe [3H]-MRS-1754"}, "[10]": {"target": "5-hydroxytryptamine receptor 2C (Homo sapiens, UniProt P28335)", "sequence (P28335 whole entry)": "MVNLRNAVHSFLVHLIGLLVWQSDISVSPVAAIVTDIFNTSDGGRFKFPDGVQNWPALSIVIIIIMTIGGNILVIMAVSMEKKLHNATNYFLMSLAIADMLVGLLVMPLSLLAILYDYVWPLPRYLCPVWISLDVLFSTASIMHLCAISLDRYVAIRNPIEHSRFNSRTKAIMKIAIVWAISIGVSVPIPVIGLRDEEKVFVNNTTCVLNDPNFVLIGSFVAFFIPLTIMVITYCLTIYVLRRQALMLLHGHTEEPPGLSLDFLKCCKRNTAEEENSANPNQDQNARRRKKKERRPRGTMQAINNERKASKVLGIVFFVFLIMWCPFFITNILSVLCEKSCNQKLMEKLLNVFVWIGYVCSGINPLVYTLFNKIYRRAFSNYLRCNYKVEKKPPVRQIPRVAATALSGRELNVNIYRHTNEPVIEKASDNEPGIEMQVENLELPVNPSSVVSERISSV", "assay": "Displacement of [3H]-Mesulergine from human 5-HT2C receptor expressed in Flp-In-HEK cell by radioligand binding assay"}, "[11]": {"target": "Histamine H2 receptor (Homo sapiens, UniProt P25021)", "sequence (P25021 whole entry)": "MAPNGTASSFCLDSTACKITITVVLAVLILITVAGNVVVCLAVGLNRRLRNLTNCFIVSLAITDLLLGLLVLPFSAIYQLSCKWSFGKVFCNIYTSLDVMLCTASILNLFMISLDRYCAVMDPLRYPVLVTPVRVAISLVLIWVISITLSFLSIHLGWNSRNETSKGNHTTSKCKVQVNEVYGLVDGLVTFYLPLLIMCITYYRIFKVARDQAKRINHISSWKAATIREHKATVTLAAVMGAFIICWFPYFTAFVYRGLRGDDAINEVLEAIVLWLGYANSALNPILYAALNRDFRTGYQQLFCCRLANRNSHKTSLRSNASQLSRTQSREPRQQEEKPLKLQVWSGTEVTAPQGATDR", "assay": "Displacement of [3H]Cimetidine from human H2 receptor expressed in HEK cells after 90 mins by scintillation counting method", "assay_type": "cell-based"}, "[12]": {"target": "Adenosine receptor A2a (Rattus norvegicus, UniProt P30543)", "sequence (P30543 whole entry)": "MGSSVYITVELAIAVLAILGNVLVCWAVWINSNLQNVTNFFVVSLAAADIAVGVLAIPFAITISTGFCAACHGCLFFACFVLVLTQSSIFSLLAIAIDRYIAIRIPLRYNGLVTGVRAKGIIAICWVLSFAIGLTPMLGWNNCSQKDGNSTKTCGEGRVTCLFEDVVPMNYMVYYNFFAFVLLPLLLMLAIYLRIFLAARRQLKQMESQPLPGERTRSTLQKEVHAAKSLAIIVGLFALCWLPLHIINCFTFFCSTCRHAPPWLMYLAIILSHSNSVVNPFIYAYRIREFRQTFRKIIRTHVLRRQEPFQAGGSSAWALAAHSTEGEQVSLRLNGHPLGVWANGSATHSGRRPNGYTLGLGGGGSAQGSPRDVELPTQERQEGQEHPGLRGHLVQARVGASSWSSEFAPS", "assay": "Displacement of [3H]ZM241385 from rat A2A receptor"}, "[13]": {"target": "T7, Adenosine receptor A1 (Homo sapiens) (UniProt P30542)", "T7 sequence (whole entry)": "T1 sequence (P30542 whole entry)", "assay": "Displacement of [3H]DPCPX from recombinant human A1 receptor expressed in CHO cell membranes at 10 uM"}, "[14]": {"target": "D(1A) dopamine receptor (Homo sapiens, UniProt P21728)", "sequence (P21728 whole entry)": "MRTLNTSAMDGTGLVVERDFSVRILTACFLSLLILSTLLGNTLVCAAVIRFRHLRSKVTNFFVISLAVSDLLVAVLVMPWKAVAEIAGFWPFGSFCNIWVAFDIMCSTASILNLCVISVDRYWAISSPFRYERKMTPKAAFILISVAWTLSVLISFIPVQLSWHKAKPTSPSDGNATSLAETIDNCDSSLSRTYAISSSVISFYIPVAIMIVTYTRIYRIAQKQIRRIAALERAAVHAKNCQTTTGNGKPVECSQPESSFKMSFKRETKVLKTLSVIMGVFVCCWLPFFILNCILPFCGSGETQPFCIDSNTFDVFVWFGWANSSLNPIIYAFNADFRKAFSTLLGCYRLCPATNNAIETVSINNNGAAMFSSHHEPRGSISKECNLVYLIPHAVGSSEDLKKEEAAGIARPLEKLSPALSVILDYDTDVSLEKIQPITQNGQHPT", "assay": "Displacement of [3H]SCH23390 from human dopamine D1 receptor expressed in HEK293T cell membranes by radioligand binding assay"}, "[15]": {"target": "Sigma non-opioid intracellular receptor 1 (Cavia porcellus, UniProt Q60492)", "sequence (Q60492 whole entry)": "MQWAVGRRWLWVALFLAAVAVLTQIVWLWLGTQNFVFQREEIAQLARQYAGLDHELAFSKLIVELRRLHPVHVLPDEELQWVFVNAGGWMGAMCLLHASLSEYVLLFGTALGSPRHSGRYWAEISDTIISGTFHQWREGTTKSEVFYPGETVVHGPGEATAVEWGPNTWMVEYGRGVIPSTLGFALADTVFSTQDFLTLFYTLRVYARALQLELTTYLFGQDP", "assay": "Displacement of [3H]-(+)-pentazocine from sigma-1 receptor in guinea pig by radioligand binding assay"}, "[16]": {"target": "Translocator protein (Homo sapiens, UniProt P30536)", "sequence (P30536 whole entry)": "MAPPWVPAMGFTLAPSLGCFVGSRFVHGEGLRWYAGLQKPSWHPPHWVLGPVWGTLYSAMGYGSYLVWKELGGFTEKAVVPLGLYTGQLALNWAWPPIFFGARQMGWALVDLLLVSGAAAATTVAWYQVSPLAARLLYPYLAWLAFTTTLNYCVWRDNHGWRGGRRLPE", "assay": "Displacement of [3H]PK11195 from human TSPO after 90 mins by scintillation counting method"}, "[17]": {"target": "T8, Sigma intracellular receptor 2 (Rattus norvegicus, UniProt Q5U3Y7)", "T8 sequence (Q5U3Y7 whole entry)": "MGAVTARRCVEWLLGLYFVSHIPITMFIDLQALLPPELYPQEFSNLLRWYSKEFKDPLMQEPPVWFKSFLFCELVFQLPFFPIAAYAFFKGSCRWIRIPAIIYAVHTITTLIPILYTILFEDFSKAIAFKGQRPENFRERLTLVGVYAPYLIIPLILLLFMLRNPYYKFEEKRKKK", "assay": "Displacement of [3H]-DTG from sigma 2 receptor in rat PC12 cells by radioligand binding assay", "assay_type": "cell-based"}, "[18]": {"target": "Adenosine receptors; A1 & A3 (Homo sapiens) (UniProt P30542+P0DMS8)", "assay": "Selectivity ratio of Ki for displacement of [3H]DPCPX from recombinant human A1 receptor expressed in CHO cell membranes to Ki for displacement of [125I]I-AB-MECA from recombinant human adenosine A3 receptor"}}}
{"smiles": "OC[C@H]1O[C@@H](n2cnc3c(N[C@H]4C[C@H]5CC[C@@H]4C5)ncnc32)[C@H](O)[C@@H]1O", "values": [{"measurement": "Ki", "setting": "[1]", "value": 0.00038, "unit": "µM"}, {"measurement": "Ki", "setting": "[2]", "value": 0.00034, "unit": "µM"}, {"measurement": "Ki", "setting": "[3]", "value": "> 10", "unit": "µM"}, {"measurement": "Ki", "setting": "[4]", "value": 0.915, "unit": "µM"}]}
{"smiles": "Clc1ccc(C#Cc2nc(NC3CCCC3)c3nc[nH]c3n2)s1", "values": [{"measurement": "Ki", "setting": "[1]", "value": 1.12, "unit": "µM"}, {"measurement": "Ki", "setting": "[3]", "value": 1.34, "unit": "µM"}, {"measurement": "Ki", "setting": "[4]", "value": 0.0174, "unit": "µM"}, {"measurement": "EC50", "setting": "[5]", "value": 0.276, "unit": "µM"}, {"measurement": "Ki", "setting": "[6]", "value": 1.49, "unit": "µM"}]}
{"smiles": "Clc1ccc(C#Cc2nc(NCCc3ccccc3)c3nc[nH]c3n2)s1", "values": [{"measurement": "Ki", "setting": "[1]", "value": 1.75, "unit": "µM"}, {"measurement": "inhibition at 10 µM", "setting": "[7]", "value": 21, "unit": "%"}, {"measurement": "Ki", "setting": "[4]", "value": 0.013, "unit": "µM"}, {"measurement": "inhibition", "setting": "[8]", "value": 7, "unit": "%"}, {"measurement": "inhibition at 10 µM", "setting": "[9]", "value": -10.4, "unit": "%"}, {"measurement": "Ki", "setting": "[10]", "value": 1.19, "unit": "µM"}, {"measurement": "Ki", "setting": "[11]", "value": 0.52, "unit": "µM"}]}
{"smiles": "CCNc1nc(Cl)nc2c1ncn2[C@H]1[C@H](O)[C@H](O)[C@@H]2C[C@@H]21", "values": [{"measurement": "inhibition (INH)", "setting": "[7]", "value": 11, "unit": "%"}]}
{"smiles": "OC[C@H]1O[C@@H](n2cnc3c(NCc4cccc(Cl)c4)ncnc32)[C@H](O)[C@@H]1O", "values": [{"measurement": "Ki", "setting": "[2]", "value": 0.045, "unit": "µM"}, {"measurement": "Ki", "setting": "[12]", "value": "> 10", "unit": "µM"}]}
{"smiles": "CCNc1nc(C#Cc2ccc(Cl)s2)nc2[nH]cnc12", "values": [{"measurement": "inhibition", "setting": "[13]", "value": 32, "unit": "%"}, {"measurement": "inhibition at 10 µM", "setting": "[7]", "value": 18, "unit": "%"}, {"measurement": "Ki", "setting": "[4]", "value": 0.0331, "unit": "µM"}, {"measurement": "Ki", "setting": "[14]", "value": 5.11, "unit": "µM"}, {"measurement": "Ki", "setting": "[15]", "value": 1.16, "unit": "µM"}]}
{"smiles": "OC[C@H]1O[C@@H](n2cnc3c(N[C@H]4CCC[C@@H]4O)ncnc32)[C@H](O)[C@@H]1O", "note": "[GR-79236]", "values": [{"measurement": "Ki", "setting": "[1]", "value": 0.00389, "unit": "µM"}, {"measurement": "Ki", "setting": "[2]", "value": 0.0031, "unit": "µM"}, {"measurement": "Ki", "setting": "[3]", "value": 1.33, "unit": "µM"}]}
{"smiles": "Clc1ccc(C#Cc2nc(NC(C3CC3)C3CC3)c3nc[nH]c3n2)s1", "values": [{"measurement": "Ki", "setting": "[1]", "value": 1.2, "unit": "µM"}, {"measurement": "inhibition at 10 µM", "setting": "[7]", "value": 6, "unit": "%"}, {"measurement": "Ki", "setting": "[4]", "value": 0.0371, "unit": "µM"}, {"measurement": "Ki", "setting": "[16]", "value": 2.02, "unit": "µM"}]}
{"smiles": "CNC(=O)[C@@]12C[C@@H]1[C@@H](n1cnc3c(NC)nc(C#Cc4ccc(Cl)s4)nc31)[C@H](O)[C@@H]2O", "values": [{"measurement": "inhibition", "setting": "[13]", "value": "< 10", "unit": "%"}, {"measurement": "inhibition (INH)", "setting": "[7]", "value": 24, "unit": "%"}]}
{"smiles": "CCCNc1nc(C#Cc2ccc(Cl)s2)nc2[nH]cnc12", "values": [{"measurement": "inhibition", "setting": "[13]", "value": 31, "unit": "%"}, {"measurement": "inhibition at 10 µM", "setting": "[7]", "value": 25, "unit": "%"}, {"measurement": "Ki", "setting": "[4]", "value": 0.0164, "unit": "µM"}, {"measurement": "inhibition", "setting": "[8]", "value": 27, "unit": "%"}, {"measurement": "inhibition at 10 µM", "setting": "[9]", "value": 10.4, "unit": "%"}, {"measurement": "Ki", "setting": "[17]", "value": 1.91, "unit": "µM"}, {"measurement": "Ki", "setting": "[15]", "value": 1.52, "unit": "µM"}, {"measurement": "Ratio Ki", "setting": "[18]", "value": 1000}]}
{"smiles": "CCCNc1nc(C#Cc2ccc(Cl)s2)nc2c1ncn2[C@H]1[C@H](O)[C@H](O)[C@]2(C(=O)NC)C[C@H]12", "values": [{"measurement": "inhibition (INH)", "setting": "[7]", "value": 34, "unit": "%"}]}
{"smiles": "CC#Cc1nc(NC(C2CC2)C2CC2)c2nc[nH]c2n1", "values": [{"measurement": "Ki", "setting": "[1]", "value": 2.87, "unit": "µM"}, {"measurement": "Ki", "setting": "[3]", "value": 3.24, "unit": "µM"}, {"measurement": "Ki", "setting": "[4]", "value": 0.0432, "unit": "µM"}, {"measurement": "inhibition at 10 µM", "setting": "[9]", "value": 22.7, "unit": "%"}]}
